{"source": "PubChem BioAssay (NCI)", "assay_in_all_cases": "NCI anticancer screen, dose series, 48 h", "key": {"NCI-H23 lung": {"tested_on": "NCI-H23 lung"}, "NCI-H460 lung": {"tested_on": "NCI-H460 lung"}, "NCI-H522 lung": {"tested_on": "NCI-H522 lung"}, "NCI/ADR-RES ovarian": {"tested_on": "NCI/ADR-RES ovarian"}, "OVCAR-3 ovarian": {"tested_on": "OVCAR-3 ovarian"}, "OVCAR-4 ovarian": {"tested_on": "OVCAR-4 ovarian"}, "OVCAR-5 ovarian": {"tested_on": "OVCAR-5 ovarian"}, "OVCAR-8 ovarian": {"tested_on": "OVCAR-8 ovarian"}, "PC-3 prostate": {"tested_on": "PC-3 prostate"}, "RPMI-8226 leukemia": {"tested_on": "RPMI-8226 leukemia"}, "RXF 393 renal": {"tested_on": "RXF 393 renal"}, "SF-268 CNS": {"tested_on": "SF-268 CNS"}, "SF-295 CNS": {"tested_on": "SF-295 CNS"}, "SF-539 CNS": {"tested_on": "SF-539 CNS"}, "SK-MEL-2 melanoma": {"tested_on": "SK-MEL-2 melanoma"}, "SK-MEL-28 melanoma": {"tested_on": "SK-MEL-28 melanoma"}, "SK-MEL-5 melanoma": {"tested_on": "SK-MEL-5 melanoma"}, "SK-OV-3 ovarian": {"tested_on": "SK-OV-3 ovarian"}, "SN12C renal": {"tested_on": "SN12C renal"}, "SNB-19 CNS": {"tested_on": "SNB-19 CNS"}, "SNB-75 CNS": {"tested_on": "SNB-75 CNS"}, "SR leukemia": {"tested_on": "SR leukemia"}, "SW-620 colon": {"tested_on": "SW-620 colon"}, "T-47D breast": {"tested_on": "T-47D breast"}, "TK-10 renal": {"tested_on": "TK-10 renal"}, "U251 CNS": {"tested_on": "U251 CNS"}, "UACC-257 melanoma": {"tested_on": "UACC-257 melanoma"}, "UACC-62 melanoma": {"tested_on": "UACC-62 melanoma"}, "UO-31 renal": {"tested_on": "UO-31 renal"}}, "note": "“And” between values parts separate entries of the source, which are not always exact repeats. Equal values may be shown once.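 These data come from cells grown in 96-well plates and exposed to compound for 48 hours at five concentrations. Here, GI50 denotes the concentration required for 50% inhibition of growth. TGI: total growth inhibition.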"}
{"smiles": "O=C(c1ccc(/C=C/c2n[nH]c3ccccc23)cc1)N1CCNCC1", "values": [{"measurement": "TGI", "setting": "NCI-H23 lung", "value": "> 10 µM and 16.9 µM"}, {"measurement": "GI50", "setting": "NCI-H460 lung", "value": "1.87 µM and 1.09 µM"}, {"measurement": "TGI", "setting": "NCI-H460 lung", "value": "3.58 µM and 12.7 µM"}, {"measurement": "GI50", "setting": "NCI-H522 lung", "value": "1.72 µM and 11 µM"}, {"measurement": "TGI", "setting": "NCI-H522 lung", "value": "3.52 µM and 26.5 µM"}, {"measurement": "GI50", "setting": "NCI/ADR-RES ovarian", "value": "> 10 µM and 15.8 µM"}, {"measurement": "TGI", "setting": "NCI/ADR-RES ovarian", "value": "> 10 µM and 36.7 µM"}, {"measurement": "GI50", "setting": "OVCAR-3 ovarian", "value": "9.32 µM and 8.01 µM"}, {"measurement": "TGI", "setting": "OVCAR-3 ovarian", "value": "> 10 µM and 24 µM"}, {"measurement": "GI50", "setting": "OVCAR-4 ovarian", "value": "> 10 µM and 3.82 µM"}, {"measurement": "TGI", "setting": "OVCAR-4 ovarian", "value": "> 10 µM and 26 µM"}, {"measurement": "GI50", "setting": "OVCAR-5 ovarian", "value": "> 10 µM and 2.51 µM"}, {"measurement": "TGI", "setting": "OVCAR-5 ovarian", "value": "> 10 µM and 26.1 µM"}, {"measurement": "GI50", "setting": "OVCAR-8 ovarian", "value": "> 10 µM and 14.1 µM"}, {"measurement": "TGI", "setting": "OVCAR-8 ovarian", "value": "> 10 µM and 34.4 µM"}, {"measurement": "GI50", "setting": "PC-3 prostate", "value": "5.02 µM and 3.12 µM"}, {"measurement": "TGI", "setting": "PC-3 prostate", "value": "> 10 µM and 35.8 µM"}, {"measurement": "GI50", "setting": "RPMI-8226 leukemia", "value": "4.21 µM and 10.5 µM"}, {"measurement": "TGI", "setting": "RPMI-8226 leukemia", "value": "> 10 µM and 47.3 µM"}, {"measurement": "GI50", "setting": "RXF 393 renal", "value": "2.66 µM and 1.99 µM"}, {"measurement": "TGI", "setting": "RXF 393 renal", "value": "> 10 µM and 6.94 µM"}, {"measurement": "GI50", "setting": "SF-268 CNS", "value": "8.61 µM and 4.34 µM"}, {"measurement": "TGI", "setting": "SF-268 CNS", "value": "> 10 µM and 18.9 µM"}, {"measurement": "GI50", "setting": "SF-295 CNS", "value": "3.15 µM and 5.28 µM"}, {"measurement": "TGI", "setting": "SF-295 CNS", "value": "> 10 µM and 21.9 µM"}, {"measurement": "GI50", "setting": "SF-539 CNS", "value": "2.18 µM and 1.83 µM"}, {"measurement": "TGI", "setting": "SF-539 CNS", "value": "6.74 µM and 9.92 µM"}, {"measurement": "GI50", "setting": "SK-MEL-2 melanoma", "value": "4.53 µM and 6.85 µM"}, {"measurement": "TGI", "setting": "SK-MEL-2 melanoma", "value": "> 10 µM and 20.5 µM"}, {"measurement": "GI50", "setting": "SK-MEL-28 melanoma", "value": "1.71 µM and 5.99 µM"}, {"measurement": "TGI", "setting": "SK-MEL-28 melanoma", "value": "3.34 µM and 19.8 µM"}, {"measurement": "GI50", "setting": "SK-MEL-5 melanoma", "value": 6.9, "unit": "µM"}, {"measurement": "TGI", "setting": "SK-MEL-5 melanoma", "value": 18.5, "unit": "µM"}, {"measurement": "GI50", "setting": "SK-OV-3 ovarian", "value": "> 10 µM and 5.15 µM"}, {"measurement": "TGI", "setting": "SK-OV-3 ovarian", "value": "> 10 µM and 20.4 µM"}, {"measurement": "GI50", "setting": "SN12C renal", "value": "> 10 µM and 2.43 µM"}, {"measurement": "TGI", "setting": "SN12C renal", "value": "> 10 µM and 19.4 µM"}, {"measurement": "GI50", "setting": "SNB-19 CNS", "value": "4.26 µM and 15.8 µM"}, {"measurement": "TGI", "setting": "SNB-19 CNS", "value": "> 10 µM and 33.2 µM"}, {"measurement": "GI50", "setting": "SNB-75 CNS", "value": "3.81 µM and 2.37 µM"}, {"measurement": "TGI", "setting": "SNB-75 CNS", "value": "> 10 µM and 9.14 µM"}, {"measurement": "GI50", "setting": "SR leukemia", "value": "1.85 µM and 0.407 µM"}, {"measurement": "TGI", "setting": "SR leukemia", "value": "4.23 µM and 10.3 µM"}, {"measurement": "GI50", "setting": "SW-620 colon", "value": "1.96 µM and 1.47 µM"}, {"measurement": "TGI", "setting": "SW-620 colon", "value": "4.14 µM and 10.8 µM"}, {"measurement": "GI50", "setting": "T-47D breast", "value": 19.5, "unit": "µM"}, {"measurement": "TGI", "setting": "T-47D breast", "value": 47.1, "unit": "µM"}, {"measurement": "GI50", "setting": "TK-10 renal", "value": "> 10 µM and 5.29 µM"}, {"measurement": "TGI", "setting": "TK-10 renal", "value": "> 10 µM and 20.2 µM"}, {"measurement": "GI50", "setting": "U251 CNS", "value": "1.81 µM and 12.2 µM"}, {"measurement": "TGI", "setting": "U251 CNS", "value": "3.33 µM and 27.2 µM"}, {"measurement": "GI50", "setting": "UACC-257 melanoma", "value": "1.76 µM and 7.57 µM"}, {"measurement": "TGI", "setting": "UACC-257 melanoma", "value": "3.3 µM and 21 µM"}, {"measurement": "GI50", "setting": "UACC-62 melanoma", "value": "1.72 µM and 11.3 µM"}, {"measurement": "TGI", "setting": "UACC-62 melanoma", "value": "3.83 µM and 24.8 µM"}, {"measurement": "GI50", "setting": "UO-31 renal", "value": "2.94 µM and 2.95 µM"}, {"measurement": "TGI", "setting": "UO-31 renal", "value": "> 10 µM and 15.1 µM"}]}
